From patent US9675568B2, “Pharmaceutical compositions” (Symrise AG, priority 2012, dated 2017)

Tested on: cell line of human leucemic granulocytes (PMN)
Assay: Respiratory burst: zymosan-triggered release of superoxide anions (ROS) measured with Luminol, with cell numbers
Assay type: cell-based
Details: for Cell numbers / Released ROS: compared with the standard (=100), average of triplicate determination; for Released ROS: zymosan-triggered, Luminol
Excerpt: In the course of cutaneous inflammations, leukocytes, such as, for example, the polymorphonuclear neutrophilic granulocytes (PMN), are stimulated by peptides, such as, for example, cytokines, to emit messenger substances, such as, for example, leucotriene, which are released from activated or necrotic cells in the dermis. These activated PMNs release not only proinflammatory cytokins, leucotrienes and proteases, but also ROS, such as, for example, superoxides and hypochlorite anions, which have the task of destroying pathogenic microbes or fungi which have penetrated it. This activity of the PMNs during inflammation is known as respiratory burst and can lead to additional tissue damage. To investigate to what extent the amide is able to prevent or reduce respiratory burst, a cell line of human leucemic granulocytes of these PMNS was incubated together with the test substances at 37° C. from 5% by volume of CO2. After the respiratory burst had been triggered by adding a yeast extract (zymosan) to the cell solution, the release of superoxide anions was determined by means of their reaction with Luminol. The values given are the cell numbers and the amount of released ROS in relative percentages compared with the standard as an average value of a measurement series with triplicate determination.

Cell numbers (0.001 % b.w. active): 104 ± 1 relative percentages
Cell numbers (0.01 % b.w. active): 94 ± 3 relative percentages
Cell numbers (0.1 % b.w. active): 93 ± 1 relative percentages
Compound: COc1ccc(NC(=O)C2CC(C)CCC2C(C)C)cc1 (centres unmarked) [Menthane carboxylic acid-N-(4-methoxy-phenyl)-amide]
Released ROS (0.001 % b.w. active): 37 ± 25 relative percentages
Released ROS (0.01 % b.w. active): 9 ± 4 relative percentages
Released ROS (0.1 % b.w. active): 8 ± 4 relative percentages
Damage to the granulocytes (summary in words of Table 1): without damaging the granulocytes
Effect on the respiratory burst of human granulocytes (summary in words of Table 1): strong inhibiting effect
